The text below walks through data of US8877163B2, “Cycloalkyl triamine pentacarboxylate as ligands for paramagnetic metal complexes” (Kaohsiung Medical University, priority 2006, dated 2014).

SMILES strings stand for the structures. Where two headings read alike, the source gives them in different places.

The conditions of series [1]: I = 0.1 M Me4NCl, T = 25.0 ± 0.1° C.; reported values; cited from earlier work.
A short description of series [2]: Stability constants of the copper complex by potentiometric titration (BEST program). The class given is physicochemical. The source says: (§1) Presently, there are two ways for calculating the thermodynamic stability constant of a metal complex by the potentiometric titration. […] The second method is suitable for the metal complex whose disassociation rate is less than 25% at low pH (such as pH 2). Take the metal complex of the present invention for instance, since it is not able to form a complex with the ligand at a pH value around 2, the thermodynamic stability constant thereof must be calculated by the previous method. The equation for the thermodynamic stability constant is defined as follows: [formula] where M represents the metal ion, L represents the ligand, and ML represents the metal complex. […] The thermodynamic stability constants for the metal complexes with CB-TTDA are determined from the titration data with the FORTRAN computer program BEST as shown in Table 2 with the reported thermodynamic stability constants of TTDA and DTPA, which are respectively reported by Y M. Wang et al., Inorganic Chemistry, vol. 44, page 382, 2005 and by P. Caravan et al., Inorganic Chemistry, vol. 44, page 2170, 2001. The conditional stability constant (Kcond) specifies the degree of metal chelation at a given pH and is defined as follows: […] [formula] where LT is the total concentration of the uncomplexed ligand, which is defined by the following equation: […]

For series [3] the following is noted: reported values; cited from earlier work.
For series [4] the following is noted: I = 0.1 M Me4NCl, T = 25.0 ± 0.1° C.; reported values; cited from earlier work. The source holds these as a separate data set.
For series [5] the following is noted: I = 0.1 M Me4NCl, T = 25.0 ± 0.1° C.; reported values; cited from earlier work. The source holds these as a separate data set.
Series [6] is described as follows: Selectivity constant and modified selectivity constant of the gadolinium complex. The class given is physicochemical. An excerpt: The selectivity constant is used only for showing the difference between the gadolinium complex and other metal complexes. However, due to the coexistence of the zinc ion, the calcium ion and the copper ion in vivo, all the following factors, which are the pH value, the protonation constant for the ligand, the concentrations of the metal ions (Zn^2+, Ca^2+, Cu^2+) and the stability constants for Gd^3+, Zn^2+, Ca^2+ and Cu^2+ complexes should be considered for obtaining the selectivity constant with a new definition, called modified selectivity constant (Ksel′) and defined by the following equation: Ksel′=Ktherm(αH^−1+αCaL^−1+αCuL^−1+αZnL^−1)^−1, where αH^−1=1+K1^H[H^+]+K1^HK2^H [H^+]^++ . . .; αCaL^−1=1+KCaL[Ca^2+]; αCuL^−1=1+KCuL[Cu^2+]; αZnL^−1=1+KZnL[Zn^2+]; and thus the modified selectivity constant of the gadolinium complex at the biological pH (7.4) could be calculated by the mentioned equation (the value of the conditional stability constant is calculated previously, and the concentrations of the zinc, the calcium and the copper ions are 50 μM, […] and 1 μm, respectively).

For series [7] the following is noted: I = 0.1 M Me4NCl, T = 25.0 ± 0.1° C.; reported values; cited from earlier work. This is another data set of the same source.
Series [8] can be described thus: Protonation constants by potentiometric titration (PKAS program). The series is classed as physicochemical. Conditions: for ΣpKa: sum of the four protonation constants. On the procedure:
Firstly, the ligands (HnL) are deprotoned (L^n−) by treating them with the alkaline solution. After that, a slow addition of the acidic solution for associating the deprotonated ligand with the protons (H^+) is performed, and thus protonated organic ligands are formed. The equation for the protonation constant is shown as follows:
Please refer to FIG. 2, which is a potentiometric titration curve for CB-TTDA (the ionic strength I=0.1 M Me4NCl and the temperature T=25.0±0.1° C.) measured by an automatic titrator system. The protonation constants for the CB-TTDA are determined from the titration data with the FORTRAN computer program PKAS as shown in Table 1.

Series [9] in a line: Stability constants of the zinc complex by potentiometric titration (BEST program). The class given is physicochemical.
Description: as §1

Series [10] is described as follows: Stability constants of the calcium complex by potentiometric titration (BEST program). The class given is physicochemical.
Description: as §1

Series [11] in a line: Stability constants of the gadolinium complex by potentiometric titration (BEST program). The series is classed as physicochemical.
Description: as §1

For series [12], the target named is human serum albumin (Homo sapiens, UniProt P02768). The note with it: cited from earlier work.
For series [13] the following is noted: 20 MHz, 37.0 ± 0.1° C., pH 7.5 ± 0.1; Y. M. Wang et al.; cited from earlier work.
The conditions of series [14]: cited from earlier work.
For series [15] the following is noted: incubation with zinc (II) for three days; 20 MHz, 37.0 ± 0.1° C.; reported by S. Laurent et al; cited from earlier work.
A short description of series [16]: Dy (III)-induced 17O-NMR water shift (d.i.s.), number of inner space water molecules. The series is classed as physicochemical. An excerpt:
From measuring the d.i.s. (Dy (III)-induced ^17O-NMR water shifts) of the ^17O nuclides in water induced by Dy (III) via ^17O-NMR and graphing the concentration of Dy (III) complexes with respect to the d.i.s., a linear relationship is found, as shown in the following equation: d.i.s.=qΔ[Dy(ligand)n(H2O)q/[H2O]
The slope is qΔ/[H2O] with q being the number of inner space water molecule. […] Because the Dy (III) hydrate is able to combine with 8 water molecules and is in direct proportion to the slope, the value of q (q=0.9) for [Dy(CB-TTDA)]^2− is obtained thereby.

[17] abbreviates: I = 0.1 M Me4NCl, T = 25.0 ± 0.1° C.

Chain of human serum albumin (P02768 25-609): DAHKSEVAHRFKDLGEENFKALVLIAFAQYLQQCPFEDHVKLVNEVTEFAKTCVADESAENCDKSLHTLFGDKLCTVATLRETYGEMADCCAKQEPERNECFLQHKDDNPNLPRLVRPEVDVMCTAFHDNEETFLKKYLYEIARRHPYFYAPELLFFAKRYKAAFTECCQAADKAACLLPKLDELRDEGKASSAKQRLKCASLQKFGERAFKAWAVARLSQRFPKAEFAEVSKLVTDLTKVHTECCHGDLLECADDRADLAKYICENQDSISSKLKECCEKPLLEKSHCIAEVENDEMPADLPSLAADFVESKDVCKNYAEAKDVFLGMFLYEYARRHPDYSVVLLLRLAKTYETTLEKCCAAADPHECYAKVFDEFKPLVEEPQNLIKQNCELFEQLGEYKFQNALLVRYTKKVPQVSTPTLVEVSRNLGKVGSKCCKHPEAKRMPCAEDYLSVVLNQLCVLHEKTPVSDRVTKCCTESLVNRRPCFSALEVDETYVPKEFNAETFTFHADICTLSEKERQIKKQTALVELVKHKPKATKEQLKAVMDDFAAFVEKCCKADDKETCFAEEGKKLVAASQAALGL

Take `O=C(O)CN(CCN(CC(=O)O)CC(=O)O)CCN(CC(=O)O)CC(=O)O` [DTPA]: in [1], the “log KCuHL” value is on record as 4.81 and the “log KML [CuL]/[Cu][L]” value is 21.38. Moreover, in series [2], the pCu worked out at 18.06 and the “log KCuL (pH = 7.4) (conditional stability constant)” value (shortened to “log KCuL”) is listed as 17.00. In series [3], the “log Kn^H [H2L]/[HL][H]” value is reported as 8.60, the “log Kn^H [H3L]/[H2L][H]” value is 4.28, the “log Kn^H [H4L]/[H3L][H]” value was 2.64 and the “log Kn^H [HL]/[L][H]” value was 10.49. Also, in [4], the “log KML [GdL]/[Gd][L] (thermodynamic stability constant)” value (from here on “log KML [GdL]/[Gd][L]”) is given as 22.46. In addition, in series [5], the “log KCaHL” value is 6.11 and the “log KML [CaL]/[Ca][L]” value is on record as 10.75. For the same molecule, in series [6], the “log K(Gd/Ca) (selectivity constant)” value came out at 11.71, the “log K(Gd/Cu) (selectivity constant)” value is 1.08 and the “log K(Gd/Zn) (selectivity constant)” value came out at 3.76. Moreover, in series [7], the “log KML [ZnL]/[Zn][L]” value is recorded as 18.70 and the “log KZnHL” value was 5.60. The molecule further showed a ΣpKa in series [8] of 26.01. Besides, in series [9], the pZn amounted to 15.39 and the “log KZnL (pH = 7.4) (conditional stability constant)” value (“log KZnL” below) came to 14.38. In addition, in series [10], the pCa came out at 7.46 and the “log KCaL (pH = 7.4) (conditional stability constant)” value (“log KCaL” below) was 6.43. The pGd in series [11] stood at 19.14.
As for `O=C([O-])CN(CCN(CC(=O)[O-])C[C@H](COP(=O)([O-])OC1CCC(c2ccccc2)(c2ccccc2)CC1)N(CC(=O)[O-])CC(=O)[O-])CC(=O)[O-].[Gd+3].[H+].[H+].[H+]` [MS-325], the “bound relaxivity r1^b” value in series [12] (bound to HSA) is 47.0 mM⁻¹ s⁻¹. Also, the “relaxivity for the combination with human serum albumin” value in [12] (bound to human serum albumin) was 47.0 mM⁻¹ s⁻¹. Also, the “binding constant with HSA, KA” value in series [12] is listed as 3.0±0.2×10^4 M^−1.
As for `O=C([O-])CN(CCCN(CC(=O)[O-])CC(=O)[O-])CCN(CC(=O)[O-])CC(=O)[O-].[Gd+3]` [[Gd(TTDA)]^2−], the “relaxivity r1” value in [13] was 3.85 ± 0.03 mM⁻¹ s⁻¹. In addition, the “calculated conditional stability constant of the gadolinium complex” value in series [11] was 14.25.
Consider `O=C([O-])CN(CCN(CC(=O)[O-])CC1(CN(CC(=O)[O-])CC(=O)[O-])CCC1)CC(=O)[O-].[Cu+2]` [[Cu(CB-TTDA)]^3−], for which the “log KML [CuL]/[Cu][L]” value in series [2] (setting [17]) turned out to be 17.71.
Take `O=C(O)CN(CCN(CC(=O)O)CC1(CN(CC(=O)O)CC(=O)O)CCC1)CC(=O)O` [CB-TTDA, 6-carboxymethyl-3-{{[1-(N,N-dicarboxymethyl)-2-aminomethyl]-cyclobut-1-yl}-methyl}-3,6-diazaoctanedioic acid]: in series [2], the pCu is on record as 13.26 and the “log KCuL” value came out at 12.25. Also, in series [2] (setting [17]), the “log KCuHL” value was 5.29(0.03) and the “log KML [CuL]/[Cu][L]” value is 17.71(0.02). Besides, in [6], the “log K(Gd/Ca) (selectivity constant)” value is recorded as 11.76, the “log K(Gd/Cu) (selectivity constant)” value was determined as 2.57 and the “log K(Gd/Zn) (selectivity constant)” value stood at 4.22. In series [8] (setting [17]), the “log Kn^H [H4L]/[H3L][H]” value was 3.11(0.04) and the “log Kn^H [HL]/[L][H]” value is 11.08(0.03). The ΣpKa in series [8] is listed as 28.59. For the same molecule, in series [9], the pZn was found to be 12.41 and the “log KZnL” value is recorded as 10.60. In addition, in series [9] (setting [17]), the “log KML [ZnL]/[Zn][L]” value is given as 16.06(0.03) and the “log KZnHL” value was 8.13(0.04). Moreover, in series [10], the pCa came to 4.09 and the “log KCaL” value was determined as 4.06. For the same molecule, in series [10] (setting [17]), the “log KCaHL” value is reported as 6.24(0.02) and the “log KML [CaL]/[Ca][L]” value was 9.52(0.02). Moreover, in series [11], the “log KML [GdL]/[Gd][L]” value is recorded as 20.28(0.03) and the pGd is recorded as 15.82.
Regarding `CNC[C@H](O)[C@@H](O)[C@H](O)[C@H](O)CO.CNC[C@H](O)[C@@H](O)[C@H](O)[C@H](O)CO.O=C([O-])CN(CCN(CC(=O)[O-])CC(=O)O)CCN(CC(=O)O)C(COCc1ccccc1)C(=O)[O-].[Gd+3]` (stereo not drawn) [[Gd(BOPTA)]^2−, gadobenate dimeglumine], the relaxivity in [14] (Fulvio U. et al., 1995) was 4.39 mM⁻¹ s⁻¹.
On to `CC1(N(CC(=O)[O-])CC(=O)[O-])CN(CC(=O)[O-])CCN(CC(=O)[O-])C1.[Gd+3]` [[Gd(AAZTA)]^−], for which, in series [14] (20 MHz and 298 K), the relaxivity was 7.1 mM⁻¹ s⁻¹. For the same molecule, in series [14] (τr increased to 30 ns), the “relaxivity calculated by simulating the NMRD profile” value is 100 mM⁻¹ s⁻¹.
Consider `CNC(=O)CN(CCN(CCN(CC(=O)[O-])CC(=O)NC)CC(=O)[O-])CC(=O)[O-].[Gd+3]` [[Gd(DTPA-BMA)], bis-methylamide gadodiamide injection], for which, in series [15], the “R1^p (t = 3days)/R1^p (t = 0 days)” value is on record as 9%.
For the molecule `O=C([O-])CN(CC(=O)[O-])CC1(CN(CCN(CC(=O)O)CC(=O)O)CC(=O)O)CCC1.[Ca+2]` [[Ca(CB-TTDA)]^3−], the “log KML [CaL]/[Ca][L]” value in [10] (setting [17]) came out at 9.52.
In the case of `O=C([O-])CN(CCN(CC(=O)[O-])CC1(CN(CC(=O)[O-])CC(=O)[O-])CCC1)CC(=O)[O-].[Dy+3]` [[Dy(CB-TTDA)]^2−], the “slope of d.i.s. versus concentration of Dy (III) complex” value in [16] (17O-NMR) is −48.2 ppm/mM. Further, in series [16] (from slope relative to Dy (III) hydrate with 8 water molecules), the “q, number of inner space water molecule” value came out at 0.9.
As to `O=C(O)CN(CCCN(CC(=O)O)CC(=O)O)CCN(CC(=O)O)CC(=O)O` [TTDA, 3,6,10-tri-(carboxymethyl)-3,6,10-triazadodecanedioic acid], in series [1], the “log KCuHL” value is 5.69 and the “log KML [CuL]/[Cu][L]” value is recorded as 16.77. Moreover, in series [2], the pCu is reported as 13.06 and the “log KCuL” value came out at 12.06. Moreover, in series [3], the “log Kn^H [H2L]/[HL][H]” value is recorded as 8.92, the “log Kn^H [H3L]/[H2L][H]” value was 5.12, the “log Kn^H [H4L]/[H3L][H]” value is recorded as 2.80 and the “log Kn^H [HL]/[L][H]” value is 10.60. In addition, the “log KML [GdL]/[Gd][L]” value in [4] was 18.96. In [5], the “log KCaHL” value was 8.20 and the “log KML [CaL]/[Ca][L]” value was 9.13. Besides, in [6], the “log K(Gd/Ca) (selectivity constant)” value worked out at 9.83, the “log K(Gd/Cu) (selectivity constant)” value is 2.19 and the “log K(Gd/Zn) (selectivity constant)” value was 2.93. Further, in series [7], the “log KML [ZnL]/[Zn][L]” value is on record as 16.03 and the “log KZnHL” value is given as 7.80. The ΣpKa in series [8] is recorded as 27.44. Besides, in series [9], the pZn came to 12.86 and the “log KZnL” value amounted to 11.32. In addition, in series [10], the pCa amounted to 6.28 and the “log KCaL” value is 4.42. Besides, the pGd in series [11] stood at 15.25.
As for `O=C([O-])CN(CC(=O)[O-])CC1(CN(CCN(CC(=O)O)CC(=O)O)CC(=O)O)CCC1.[Zn+2]` [[Zn(CB-TTDA)]^3−], the “log KML [ZnL]/[Zn][L]” value in [9] (setting [17]) stood at 16.06.
